Measured values as given in patent US20050148534A1, “Small molecule compositions and methods for increasing drug efficiency using compositions thereof” (priority 2003, published 2005).
Each block holds one compound with its values, some of them ahead of it.

Experiments:
[1] = system: tubulin; experiment: Fluorescence-based microtubule polymerization assay (MPA); type: biochemical; conditions: mean percentage of paclitaxel or vinblastine activity; 0.75-10 micromolar
Method in brief: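 Tubulin polymerization was followed by fluorescence (ex 360/em 405 nm) in a commercial kit with 1 mg/ml BSA added to every assay, glycerol being omitted for paclitaxel conjugates. Parent drugs and conjugates were tested at 0.75, 1.5, 3 and 10 micromolar final. Curves from the linear range of the dose responses were compared.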

[2] = system: Normal human foreskin fibroblasts (HFF); experiment: Cytotoxicity assay (monolayer), HFF; type: cell-based; conditions: Fibroblast, monolayer, 72 hours, AlamarBlue, read-out: HFF (EC50 Ave) ML
Method: (§1) Statistical Assoc., 81, 991-999, 1986.
(§2) Monolayer assays with tumor cell lines (MCF-7 breast carcinoma and HT-29 colorectal carcinoma from ATCC) were carried out in triplicate in 96-well plates with RPMI1640 medium containing 5% fetal bovine serum, 100 U/ml penicillin and 100 μg/ml streptomycin. Normal human foreskin fibroblasts (HFF #CC-2509) were from Cambrex and were cultured in FGM-2 medium. Exponentially growing cells (5,000 MCF-7 or HT-29; 1,500 HFF) were plated in 100 μl medium and incubated overnight (5% CO2, 37° C.). Compounds (20 pM to 20 μM final concentration, 6-8 doses) and vehicle (DMSO) controls were added and the incubation was continued for an additional 72 hours. Final cell density was determined by incubating cultures with 25 μl AlamarBlue reagent (BioSource, Camarillo, Calif.) for 4 hours, followed by determination of fluorescence at excitation of 544 nm and emission of 590 nm with a SpectroMax Gemini EM fluorescence plate reader (Molecular Devices, Sunnyvale, Calif.). EC50 values were generated from dose-response curves by a 4-parameter method using Softmax PRO software. Mean EC50s (±SD) represent the average of all tests carried out for all lots of a given compound. […] Statistical Assoc., 81, 991-999 (1986).

[3] = system: MCF7; experiment: Cytotoxicity assay, MCF7 SSA (SSA not explained); type: cell-based; conditions: Homo sapiens
[4] = system: HT-29 colorectal carcinoma; experiment: Cytotoxicity assay (soft agar), HT-29; conditions: Homo sapiens, HT-29, read-out: HT29 (EC50 Ave) SA
[5] = system: MCF-7 breast carcinoma; experiment: Cytotoxicity assay (soft agar), MCF-7; conditions: Homo sapiens, MCF7, read-out: MCF7 (EC50 Ave) SA
[6] = system: HUVEC; experiment: Cytotoxicity assay (monolayer), HUVEC; type: cell-based; conditions: Homo sapiens, read-out: HUVEC (EC50 Ave) ML
[7] = system: HT29; experiment: Cytotoxicity assay, HT29 SSA (SSA not explained); type: cell-based; conditions: Homo sapiens, HT-29; read-out: HT29 (EC50 Ave) SSA
[8] = system: MCF-7 breast carcinoma; experiment: Cytotoxicity assay (monolayer), MCF-7; type: cell-based; conditions: Homo sapiens, MCF7; monolayer, 72 hours, AlamarBlue; read-out: MCF7 (EC50 Ave) ML
Method: as §1, §2

[9] = system: HT-29 colorectal carcinoma; experiment: Cytotoxicity assay (monolayer), HT-29; type: cell-based; conditions: Homo sapiens, monolayer, 72 hours, AlamarBlue, read-out: HT29 (EC50 Ave) ML
Method: as §1, §2

[10] = system: breast carcinoma, colon carcinoma and leukemia; experiment: Cytotoxicity of drug-thymidine conjugates (Example 22); type: cell-based
[11] = molecular target: T1, Human thymidine kinase 1 (TK1) (Homo sapiens, UniProt P04183); experiment: Thymidine kinase coupled (kinetic) ATP depletion assay; type: biochemical; conditions: initial velocity relative to thymidine; 100 μM conjugate
T1 construct: His tag (from pET28b(+)) (N); made in house; host or cells: E. coli BL21-codon plus
T1 sequence (P04183 1-234): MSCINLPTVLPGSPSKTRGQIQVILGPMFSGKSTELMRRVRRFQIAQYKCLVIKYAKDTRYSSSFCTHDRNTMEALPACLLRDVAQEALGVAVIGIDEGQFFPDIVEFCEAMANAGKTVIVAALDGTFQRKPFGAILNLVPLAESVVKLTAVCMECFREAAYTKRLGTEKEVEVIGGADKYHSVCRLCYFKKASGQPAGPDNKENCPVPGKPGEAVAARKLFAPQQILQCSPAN
Method: Thymidine kinase, viral thymidine kinase, TK-1 deoxycytidine kinase, and deoxyguanosine kinase activities are determined by subjecting a first end of a linker used in synthesizing linker-substrate constructs to a first test. The first test may involve observing ADP formation, an obligatory co-product of phospho group transfer from ATP which is catalyzed by the kinase to the C5′ hydroxyl group or its equivalent in the nucleoside or nucleoside analog. Formation of ADP is followed by a coupled enzyme assay well known in the art. ADP, formed from kinase phosphorylation, is used by pyruvate kinase to generate pyruvate from phosphoenolpyruvate which in turn is converted to lactate by lactate dehydrogenase. The lactate results in the consumption of NADH which is followed spectrophotometrically. The rate of nucleoside phosphorylation is then directly related to the rate of decrease in the observed NADH signal.
TK1 was amplified using PCR with forward primer 5′-[…]-3′ and reverse primer 5′-[…]-3′. The PCR product was digested with Nde I and Hind III. An N-terminal His-tagged TK1 construct, TK1/pET28b(+), was generated by subcloning TK1 into the Nde I and Hind III sites of prokaryotic expression vector pET28b (+) (Novagen, San Diego, Calif.). TK1 was expressed from TK1/pET28b(+) using E. coli strain BL21-codon plus (Stratagene, San Diego, Calif.) and purified by Ni column chromatography.
A coupled (kinetic) ATP depletion assay was developed to measure thymidine kinase activity. The reaction contained 100 mM Tris HCl, pH 7.5, 20 mM MgCl2, 100 mM KCl, 0.4 mM PEP, 0.2 mM NADH, Pyruvate Kinase (0.7 units)/Lactate Dehydrogenase (1.0 unit) (Sigma #PO294), 2.5-10 μg Thymidine Kinase, 100 μM thymidine or thymidine-drug conjugate in a volume of 75 μl. ATP (5 mM in 25 μl H2O) was added to initiate the reaction and the velocity of ATP depletion was monitored at 340 nm continuously for 15 minutes.

[12] = molecular target: T2, Topoisomerase II (Homo sapiens, UniProt P11388); experiment: Topoisomerase II assay; type: biochemical; conditions: doxorubicin and its conjugates; percent activity of Doxorubicin
T2 construct: purchased TopoGEN Inc. (Columbus, Ohio) 1009-1
Method: In certain embodiments, activity of doxorubicin conjugates was assayed by monitoring alteration in the ability of Topoisomerase II, by electrophoresis, to catalyze the formation of relaxed conformation DNA from a super-coiled plasmid.
Specifically the kit was used to assay whether Doxorubicin conjugates altered the ability of Topoisomerase II to catalyze the formation of relaxed conformation DNA from a super-coiled plasmid. Doxorubicin conjugates were compared directly to Doxorubicin at 10, 3, 1, 0.3, 0.1 and 0.03 micromolar concentrations. The quantity of relaxed conformation DNA was quantified from an agarose gel on which is it is separated from the super-coiled DNA by standard electrophoresis. […] The results are presented in terms of percent activity of Doxorubicin.

T2 sequence (P11388 whole entry): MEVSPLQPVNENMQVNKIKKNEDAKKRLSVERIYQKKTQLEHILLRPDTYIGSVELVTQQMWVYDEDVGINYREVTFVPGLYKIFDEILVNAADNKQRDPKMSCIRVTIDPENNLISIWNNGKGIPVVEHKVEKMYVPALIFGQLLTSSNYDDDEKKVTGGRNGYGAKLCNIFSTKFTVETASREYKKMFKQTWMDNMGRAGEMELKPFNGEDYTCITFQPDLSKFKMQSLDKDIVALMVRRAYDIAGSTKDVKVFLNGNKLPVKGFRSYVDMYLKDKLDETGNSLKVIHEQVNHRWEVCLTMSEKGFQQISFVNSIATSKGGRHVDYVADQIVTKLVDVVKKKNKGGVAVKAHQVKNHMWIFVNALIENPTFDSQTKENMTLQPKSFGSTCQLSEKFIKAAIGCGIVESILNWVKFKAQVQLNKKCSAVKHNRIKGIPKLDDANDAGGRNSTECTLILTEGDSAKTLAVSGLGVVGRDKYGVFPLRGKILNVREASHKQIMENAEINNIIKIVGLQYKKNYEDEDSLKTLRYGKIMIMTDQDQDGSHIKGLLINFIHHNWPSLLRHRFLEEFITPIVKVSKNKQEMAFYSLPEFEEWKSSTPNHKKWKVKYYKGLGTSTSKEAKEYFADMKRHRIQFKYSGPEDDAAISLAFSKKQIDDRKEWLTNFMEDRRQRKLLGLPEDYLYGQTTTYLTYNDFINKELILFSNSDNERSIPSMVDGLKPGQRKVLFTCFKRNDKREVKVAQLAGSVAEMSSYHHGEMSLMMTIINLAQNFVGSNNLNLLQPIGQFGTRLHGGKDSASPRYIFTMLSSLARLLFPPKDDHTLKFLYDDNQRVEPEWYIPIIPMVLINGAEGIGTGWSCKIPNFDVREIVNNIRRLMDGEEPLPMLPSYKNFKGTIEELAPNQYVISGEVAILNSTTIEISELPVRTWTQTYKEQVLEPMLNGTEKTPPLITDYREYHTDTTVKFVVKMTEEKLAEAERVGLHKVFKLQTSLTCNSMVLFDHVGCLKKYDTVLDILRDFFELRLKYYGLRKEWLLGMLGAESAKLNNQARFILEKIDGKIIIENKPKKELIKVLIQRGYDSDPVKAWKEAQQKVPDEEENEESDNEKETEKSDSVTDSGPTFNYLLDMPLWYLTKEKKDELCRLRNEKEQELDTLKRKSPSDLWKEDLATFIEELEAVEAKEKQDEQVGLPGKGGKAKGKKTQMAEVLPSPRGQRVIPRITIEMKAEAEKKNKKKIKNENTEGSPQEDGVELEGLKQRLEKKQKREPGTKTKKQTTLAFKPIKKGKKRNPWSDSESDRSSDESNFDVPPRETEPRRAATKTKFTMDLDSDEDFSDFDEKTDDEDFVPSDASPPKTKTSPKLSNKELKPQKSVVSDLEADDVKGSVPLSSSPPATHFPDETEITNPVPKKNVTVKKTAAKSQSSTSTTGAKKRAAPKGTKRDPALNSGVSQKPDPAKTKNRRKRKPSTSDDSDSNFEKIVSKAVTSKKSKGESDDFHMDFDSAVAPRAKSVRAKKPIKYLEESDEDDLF

Compound: CC[C@]1(O)CC2CN(CCc3c([nH]c4ccccc34)[C@@](C(=O)OC)(c3cc4c(cc3OC)N(C)[C@H]3C(O)(C(=O)NCCOCCOCCOCCN)[C@H](O)[C@]5(CC)C=CCN6CCC43[C@@H]65)C2)C1 (stereo partly drawn) [VBL-3Am-PEG(11)-NH2, deacetylvinblastine-3-(amido-PEG-amine)]
Ave. MPA Act [1]: B (B=60-100)
EC50 [2]: < 100 nM
EC50 [3]: < 100 nM
EC50 [4]: < 100 nM
EC50 [5]: < 100 nM
EC50 [6]: < 100 nM
EC50 [7]: < 100 nM
EC50 [8]: 100 to 1000 nM
EC50 [9]: 100 to 1000 nM

Ave. TK1 Kinase Act. [11]: A (A<20)
Compound: CC[C@]1(O)C[C@@H]2CN(CCc3c([nH]c4ccccc34)[C@@](C(=O)OC)(c3cc4c(cc3OC)N(C)[C@H]3[C@@](O)(C(=O)OC)[C@H](OC(C)=O)[C@]5(CC)C=CCN6CC[C@]43[C@@H]65)C2)C1 [Vinblastine]
Ave. MPA Act [1]: C (C>100)
EC50 [2]: < 100 nM
EC50 [3]: < 100 nM
EC50 [4]: < 100 nM
EC50 [5]: < 100 nM
EC50 [10]: 1 to 2 nM
EC50 [7]: < 100 nM
EC50 [8]: < 100 nM
EC50 [9]: < 100 nM

Compound: COc1cccc2c1C(=O)c1c(O)c3c(c(O)c1C2=O)C[C@@](O)(C(=O)CO)C[C@@H]3OC1CC(NCCCN2C(=O)CC(SCCC(=O)NCCCCCCn3c(=O)c(C)cn([C@H]4CC(O)[C@@H](CO)O4)c3=O)C2=O)C(O)C(C)O1 (stereo partly drawn) [DOX-3′ALK-MALa(17)-N3-THY]
EC50 [2]: > 1000 nM
EC50 [6]: > 1000 nM
EC50 [8]: > 1000 nM
Ave. MPA Act (doxorubicin) [12]: A (A<60)
Ave. TK1 Kinase Act. [11]: A (A<20)

Ave. MPA Act (doxorubicin) [12]: C (C>100)
Ave. TK1 Kinase Act. [11]: A (A<20)
Compound: COc1cccc2c1C(=O)c1c(O)c3c(c(O)c1C2=O)C[C@@](O)(C(=O)CO)C[C@@H]3O[C@H]1C[C@H](N)[C@H](O)[C@H](C)O1 [Doxorubicin]
EC50 [2]: < 100 nM
EC50 [6]: < 100 nM
EC50 [8]: < 100 nM
EC50 [9]: 100 to 1000 nM
